Results: patent US7157083B2, “Compositions and methods for treating retroviral infections” (priority 1998, dated 2007)

Tested on: ROJO (low passage HIV-1)
Assay: Study 2 hyaluronidase chronic overlay testing: RT activity after secondary ROJO infection
Type: cell-based
Text: Percent virus control (% VC) in the following tables is the mean RT activity (cpm) as a percentage of a virus control. Percent cell control (% CC) is the mean XTT absorbance as a percentage of a cell control.
Method A. Peripheral blood monocytes were isolated from normal HIV-1 negative donors by plastic adherence following ficall hypaque purification of the buffy coat PBMCs. For isolation of adherent cells, 3×10^6/ml non-PHA stimulated peripheral blood cells were resuspended in Hanks buffered saline (with calcium and magnesium) supplemented with 10% human AB serum, and 200 μl per well placed in a 96 well lat bottomed microtiter plate. The cells were incubated overnight at 37° C., 5% CO2. Non-adherent cells were removed by washing six time with a Ca^++, Mg^++ containing medium. The adherent cells after the final wash were supplemented with RPMI 1640 supplemented with 15% fetal bovine serum (heat inactivated), 2 mM L-glutamine, 100 U/mL penicillin, 100 μg/mL streptomycin and 10 μg/mL gentamycin, and cultured for 7 days. The cultures were washed one final time before addition of compounds to remove any non-adherent cells. The cultures are carefully monitored for confluency prior to assay.
Reverse transcriptase (RT) activity was measured in cell-free supernatants. Tritiated thymidine triphosphate (NEN) (TTP) was resuspended in distilled H2O at […]. Poly rA and oligo dT were prepared as a stock solution which was kept at −20° C. The RT reaction buffer was prepared fresh on a daily basis and consists of 125 μL 1.0 M EGTA, 125 μL d H2O, 110 μL 10% SDS, 50 μL 1.0 M Tris (pH 7.4), 50 μL 1.0 M DTT, and 40μ1.0 M MgCl2. These three solutions were mixed together in a ratio of 2 parts TTP, 1 part poly rA:oligo dT, and 1 part reaction buffer. Ten microliters of this reaction mixture was placed in a round bottom microtiter plate and 15 μL of virus containing supernatant was added and mixed. The plate was incubated at 37° C. in a water bath with a solid support to prevent submersion of the plate and incubated for 60 minutes. Following reaction, the reaction volume was spotted onto pieces of DE81 paper, washed 5 times for 5 minutes each in a 5% sodium phosphate buffer, 2 times for 1 minute each in distilled water, 2 times for 1 minute each in 70% ethanol, and then dried. Opti-Fluor O was added to each sample and incorporated radioactivity was quantitated utilizing a Wallace 1450 Microbetaplus liquid scintillation counter.
Assay method. Seven day old Rojo chronically infected (and uninfected control) PBMCs are pre-treated with two fold dilutions of HLDA-1 for 48 hours. Treated cells are 2× washed with PBS and overlayed onto seven day old macrophages for 72 hours at which time the PBMCs were washed off and replaced with fresh uninfected pha blast PBMCs in the presence of IL-1 (5.0 ng/mL) and IL-2 (20U/mL). Overlayed cells are incubated for 48 hours 50% of cells transferred to a fresh 96 well plate, and then both the original and transfer plate infected with ROJO at a standard MOI. Samples for reverse transcriptase and toxicity testing were processed on day 7 post secondary infection.

For Hyaluronidase, the “RT activity % VC” value (Table 4, 2.5 units/mL, Rojo chronic PBMCs, Macrophage + PBMCs) was 207.4%, the “RT activity % VC” value (Table 4, 2.5 units/mL, Rojo chronic PBMCs, Transfer PBMCs) was 183.0% and the “RT activity % VC” value (Table 4, 2.5 units/mL, control uninfected PBMCs, Macrophage + PBMCs) was 102.3%. For the same substance, the “RT activity % VC” value (Table 4, 2.5 units/mL, control uninfected PBMCs, Transfer PBMCs) was 47.3%, the “RT activity % VC” value (Table 4, 3.75 units/mL, Rojo chronic PBMCs, Macrophage + PBMCs) was 124.1% and the “RT activity % VC” value (Table 4, 3.75 units/mL, Rojo chronic PBMCs, Transfer PBMCs) was 126.5%. For the same substance, the “RT activity % VC” value (Table 4, 3.75 units/mL, control uninfected PBMCs, Macrophage + PBMCs) was 111.5%, the “RT activity % VC” value (Table 4, 3.75 units/mL, control uninfected PBMCs, Transfer PBMCs) was 34.4% and the “RT activity % VC” value (Table 4, 5 units/mL, Rojo chronic PBMCs, Macrophage + PBMCs) was 22.2%. The “RT activity % VC” value (Table 4, 5 units/mL, Rojo chronic PBMCs, Transfer PBMCs) was 24.2%, the “RT activity % VC” value (Table 4, 5 units/mL, control uninfected PBMCs, Macrophage + PBMCs) was 71.1% and the “RT activity % VC” value (Table 4, 5 units/mL, control uninfected PBMCs, Transfer PBMCs) was 18.0%. The “RT activity % VC” value (Table 4, 7.5 units/mL, Rojo chronic PBMCs, Macrophage + PBMCs) was 12.7%, the “RT activity % VC” value (Table 4, 7.5 units/mL, Rojo chronic PBMCs, Transfer PBMCs) was 21.9% and the “RT activity % VC” value (Table 4, 7.5 units/mL, control uninfected PBMCs, Macrophage + PBMCs) was 56.4%. The “RT activity % VC” value (Table 4, 7.5 units/mL, control uninfected PBMCs, Transfer PBMCs) was 26.8%, the “RT activity % VC” value (Table 4, 10 units/mL, Rojo chronic PBMCs, Macrophage + PBMCs) was 14.8% and the “RT activity % VC” value (Table 4, 10 units/mL, Rojo chronic PBMCs, Transfer PBMCs) was 21.5%. The “RT activity % VC” value (Table 4, 10 units/mL, control uninfected PBMCs, Macrophage + PBMCs) was 56.2%, the “RT activity % VC” value (Table 4, 10 units/mL, control uninfected PBMCs, Transfer PBMCs) was 21.2% and the “RT activity % VC” value (Table 4, 15 units/mL, Rojo chronic PBMCs, Macrophage + PBMCs) was 13.3%. The “RT activity % VC” value (Table 4, 15 units/mL, Rojo chronic PBMCs, Transfer PBMCs) was 21.9%, the “RT activity % VC” value (Table 4, 15 units/mL, control uninfected PBMCs, Macrophage + PBMCs) was 40.2% and the “RT activity % VC” value (Table 4, 15 units/mL, control uninfected PBMCs, Transfer PBMCs) was 20.6%. For the same substance, the “RT activity % VC” value (Table 4, 20 units/mL, Rojo chronic PBMCs, Macrophage + PBMCs) was 14.2%, the “RT activity % VC” value (Table 4, 20 units/mL, Rojo chronic PBMCs, Transfer PBMCs) was 13.6% and the “RT activity % VC” value (Table 4, 20 units/mL, control uninfected PBMCs, Macrophage + PBMCs) was 41.9%. The “RT activity % VC” value (Table 4, 20 units/mL, control uninfected PBMCs, Transfer PBMCs) was 33.0%, the “RT activity % VC” value (Table 4, 30 units/mL, Rojo chronic PBMCs, Macrophage + PBMCs) was 19.9% and the “RT activity % VC” value (Table 4, 30 units/mL, Rojo chronic PBMCs, Transfer PBMCs) was 18.0%. The “RT activity % VC” value (Table 4, 30 units/mL, control uninfected PBMCs, Macrophage + PBMCs) was 43.8%, the “RT activity % VC” value (Table 4, 30 units/mL, control uninfected PBMCs, Transfer PBMCs) was 24.0% and the “RT activity % VC” value (Table 5, 2.5 units/mL, Rojo chronic PBMCs, Macrophage + PBMCs) was 164.0%. For the same substance, the “RT activity % VC” value (Table 5, 2.5 units/mL, Rojo chronic PBMCs, Transfer PBMCs) was 106.0%, the “RT activity % VC” value (Table 5, 2.5 units/mL, control uninfected PBMCs, Transfer PBMCs) was 136.0% and the “RT activity % VC” value (Table 5, 3.75 units/mL, Rojo chronic PBMCs, Macrophage + PBMCs) was 191.7%. The “RT activity % VC” value (Table 5, 3.75 units/mL, Rojo chronic PBMCs, Transfer PBMCs) was 152.4%, the “RT activity % VC” value (Table 5, 3.75 units/mL, control uninfected PBMCs, Macrophage + PBMCs) was 108.5% and the “RT activity % VC” value (Table 5, 3.75 units/mL, control uninfected PBMCs, Transfer PBMCs) was 195.0%. For the same substance, the “RT activity % VC” value (Table 5, 5 units/mL, Rojo chronic PBMCs, Macrophage + PBMCs) was 253.5%, the “RT activity % VC” value (Table 5, 5 units/mL, control uninfected PBMCs, Macrophage + PBMCs) was 184.7% and the “RT activity % VC” value (Table 5, 5 units/mL, control uninfected PBMCs, Transfer PBMCs) was 380.0%. The “RT activity % VC” value (Table 5, 7.5 units/mL, Rojo chronic PBMCs, Macrophage + PBMCs) was 476.0%, the “RT activity % VC” value (Table 5, 7.5 units/mL, Rojo chronic PBMCs, Transfer PBMCs) was 792.6% and the “RT activity % VC” value (Table 5, 10 units/mL, Rojo chronic PBMCs, Transfer PBMCs) was 730.4%. The “RT activity % VC” value (Table 5, 10 units/mL, control uninfected PBMCs, Macrophage + PBMCs) was 965.0%, the “RT activity % VC” value (Table 5, 20 units/mL, Rojo chronic PBMCs, Macrophage + PBMCs) was 375.9% and the “RT activity % VC” value (Table 5, 20 units/mL, Rojo chronic PBMCs, Transfer PBMCs) was 284.2%. For the same substance, the “RT activity % VC” value (Table 5, 20 units/mL, control uninfected PBMCs, Macrophage + PBMCs) was 196.8%, the “RT activity % VC” value (Table 5, 20 units/mL, control uninfected PBMCs, Transfer PBMCs) was 383.0% and the “RT activity % VC” value (Table 5, 30 units/mL, Rojo chronic PBMCs, Macrophage + PBMCs) was 291.8%. The “RT activity % VC” value (Table 5, 30 units/mL, Rojo chronic PBMCs, Transfer PBMCs) was 222.3%, the “RT activity % VC” value (Table 5, 30 units/mL, control uninfected PBMCs, Macrophage + PBMCs) was 163.1% and the “RT activity % VC” value (Table 5, 30 units/mL, control uninfected PBMCs, Transfer PBMCs) was 142.7%.
